Data on one molecule can be found in PMC7081834 (Science (New York, N.Y.), 2019).

The target in the assay is WWP1 (WW domain–containing ubiquitin E3 ligase 1) (Homo sapiens, UniProt Q9H0M0, F577A/Y656A). Nature of the assay: microscale thermophoresis. Type of assay: binding.

Molecules are shown by their SMILES.

Chain of WWP1 (WW domain–containing ubiquitin E3 ligase 1) (Q9H0M0 546-922 F577A/Y656A limits assumed): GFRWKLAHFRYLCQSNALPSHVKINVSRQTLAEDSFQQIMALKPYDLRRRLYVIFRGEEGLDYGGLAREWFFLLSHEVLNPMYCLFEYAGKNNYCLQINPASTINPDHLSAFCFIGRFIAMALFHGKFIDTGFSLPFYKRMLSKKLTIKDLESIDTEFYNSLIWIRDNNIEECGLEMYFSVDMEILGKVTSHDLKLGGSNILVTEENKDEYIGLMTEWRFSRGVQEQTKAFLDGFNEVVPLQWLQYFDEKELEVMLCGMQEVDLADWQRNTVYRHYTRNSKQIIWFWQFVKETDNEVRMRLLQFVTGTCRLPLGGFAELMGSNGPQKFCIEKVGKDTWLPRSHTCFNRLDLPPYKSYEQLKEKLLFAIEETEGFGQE

`OCc1c[nH]c2ccccc12` [I3C, indole-3-carbinol] came in with a Kd of roughly 7.72 µM.
